Test results published in patent US10617692B2, “Pyrrolopyrimidine comprising cyclopentyl substituent” (CENTAURUS BIOPHARMA CO., LTD., priority 2016, dated 2020).

Assays:
[1] = molecular target: JAK2 kinase (Homo sapiens (Human), UniProt O60674); assay: Assay for enzymatic activity (IC50), HTRF kinase assay; assay type: biochemical; settings: ATP at Km, 120 min at 23° C.
Experimental: A testing platform for kinase activity of JAK2 was established based on Homogeneous Time-Resolved Fluorescence (HTRF) assay, and the activities of the compounds were tested using the platform. The compounds were subjected to three-fold gradient dilutions with 100% DMSO with a starting concentration of 1 mM (11 dilutions in total). 4 μL of each dilution was added to 96 μL of reaction buffer (50 mM HEPES, pH 7.4, 10 mM MgCl2, 1 mM EGTA, 0.01% Tween-20, 0.005% BAS, 2 mM DTT) and mixed homogeneously. […] The mixture was mixed homogeneously by centrifugation. […] The plate was incubated in the incubator for 1 hr, and then the fluorescence values were read on Envision (available from PerkinElmer). The excitation wavelength was 320 nm, and the emission wavelengths for detection were 665 nm and 620 nm. The enzymatic activity was represented by a ratio of the two readout at the two emission wavelengths. The enzymatic activity for each compound was tested at 11 concentrations, and IC50 values of the compounds were obtained by calculating the data using GraFit6.0 software (Erithacus Software)

[2] = Plasma protein binding assay (Rapid Equilibrium Dialysis), determination of free moiety; assay type: in vitro ADME; settings: equilibrium dialysis 5 hours in human plasma at 37° C.; compounds II, III, IV at 10 μM, compound I at 1 μM and 10 μM
Experimental: Protein binding to the tested compounds was determined by equilibrium dialysis using a Rapid Equilibrium Dialysis (RED) Device system. The dialysis was performed for 5 hours in human plasma at 37° C. The compound II, the compound III, and the compound IV were incubated at 10 μM, and the compound I was incubated at 1 μM and 10 μM. The concentrations of the compounds in plasma and a buffer solution after dialysis were determined through LC-MS/MS analysis. The free moiety is defined as a ratio of the concentration in the buffer solution to the concentration in the plasma.

[3] = Human liver microsomal stability test, determination of inherent clearance; assay type: in vitro ADME; settings: 37° C.; for half-life at 1 μM: both sexes, 1 μM compound, human liver microsomes 0.4 mg/mL protein, 1.25 mM NADPH, 1 hour, read-out: Human liver microsome T1/2 (converted); for Human inherent CL: calculated from declination slope of compound concentration in human liver microsomes, 1 μM
Experimental: 1 μM of the tested compound was incubated for 1 hour together with human liver microsomes of mixed genders (0.4 mg/mL protein) in the presence of 1.25 mM NADPH at 37° C. to determine the inherent clearance. The disappearance of the tested compound was monitored by LC-MS/MS at 0, 10, 20, 30, 45, and 60 minute. By using the standard method reported in literatures, the declination slope of the concentration of the compound was used to calculate the inherent clearance of human.

Sequence of JAK2 kinase (O60674 whole entry): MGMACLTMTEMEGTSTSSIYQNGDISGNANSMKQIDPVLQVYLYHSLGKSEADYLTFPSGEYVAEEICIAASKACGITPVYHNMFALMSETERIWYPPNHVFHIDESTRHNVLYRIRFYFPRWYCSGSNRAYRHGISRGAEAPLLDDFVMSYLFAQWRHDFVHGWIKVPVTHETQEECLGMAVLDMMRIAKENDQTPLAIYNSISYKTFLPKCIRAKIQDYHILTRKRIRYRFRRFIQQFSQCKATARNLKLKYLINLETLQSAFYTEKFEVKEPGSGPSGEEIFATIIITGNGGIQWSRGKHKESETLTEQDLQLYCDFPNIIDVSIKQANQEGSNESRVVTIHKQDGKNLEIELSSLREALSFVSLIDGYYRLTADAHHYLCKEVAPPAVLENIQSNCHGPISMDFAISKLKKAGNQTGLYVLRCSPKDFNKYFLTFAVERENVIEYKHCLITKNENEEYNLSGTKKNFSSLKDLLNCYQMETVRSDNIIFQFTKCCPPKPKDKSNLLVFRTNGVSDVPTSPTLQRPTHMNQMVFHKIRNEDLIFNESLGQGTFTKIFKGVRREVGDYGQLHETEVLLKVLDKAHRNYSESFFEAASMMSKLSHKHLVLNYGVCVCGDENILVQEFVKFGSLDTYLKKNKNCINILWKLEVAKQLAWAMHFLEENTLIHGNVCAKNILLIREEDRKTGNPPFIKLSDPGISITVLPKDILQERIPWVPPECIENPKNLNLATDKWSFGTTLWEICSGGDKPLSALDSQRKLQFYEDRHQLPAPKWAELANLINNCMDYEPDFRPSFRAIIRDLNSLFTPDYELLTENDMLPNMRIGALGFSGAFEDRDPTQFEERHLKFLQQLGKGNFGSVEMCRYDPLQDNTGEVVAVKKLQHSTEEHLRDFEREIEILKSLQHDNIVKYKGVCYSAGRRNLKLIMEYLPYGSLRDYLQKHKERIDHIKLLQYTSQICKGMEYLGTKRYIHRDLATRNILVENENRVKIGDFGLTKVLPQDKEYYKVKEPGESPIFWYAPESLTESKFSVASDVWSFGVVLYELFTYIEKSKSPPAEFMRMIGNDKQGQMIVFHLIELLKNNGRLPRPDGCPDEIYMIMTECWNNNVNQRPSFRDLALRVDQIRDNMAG

| Structure (SMILES) | IC50 [1] [nM] | Unbound moiety (% human plasma) [2] [%] | half-life at 1 μM [3] [h] | Human inherent CL [3] [mL/min/kg] |
| --- | --- | --- | --- | --- |
| N#CCC(C1CCC(=O)C1)n1cc(-c2ncnc3[nH]ccc23)c(N)n1 (stereo not shown) [Compound III, 3-[3-amino-4-(7H-pyrrolo[2,3-d]pyrimidin-4-yl)-1H-pyrazol-1-yl]-3-(3-oxocyclopentyl)propionitrile] | < 10 | 30.4 | > 4 | <5.17 |
| N#CCC(C1CCCC1=O)n1cc(-c2ncnc3[nH]ccc23)c(N)n1 (stereo not shown) [Compound IV, 3-[3-amino-4-(7H-pyrrolo[2,3-d]pyrimidin-4-yl)-1H-pyrazol-1-yl]-3-(2-oxocyclopentyl)propionitrile] | < 30 | 24.3 | > 4 | <5.17 |
| N#CC[C@H](C1CCCC1)n1cc(-c2ncnc3[nH]ccc23)c(N)n1 [Compound I^a, (3R)-3-[3-amino-4-(7H-pyrrolo[2,3-d]pyrimidin-4-yl)-1H-pyrazol-1-yl]-3-cyclopentylpropionitrile] | – | – | 2.76 | – |
| N#CCC(C1CCCC1O)n1cc(-c2ncnc3[nH]ccc23)c(N)n1 (stereo not shown) [Compound II, 3-[3-amino-4-(7H-pyrrolo[2,3-d]pyrimidin-4-yl)-1H-pyrazol-1-yl]-3-(2-hydroxylcyclopentyl)propionitrile] | < 10 | 28.8 | > 4 | <5.17 |
